Values quoted from earlier work in PubChem BioAssay AID1259409 (Chemical Carcinogenesis Research Information System (CCRIS), 2018).

System: rodent chemically induced tumor inhibition, incidence and multiplicity
Experiment: CCRIS tumor inhibitor studies
Details: Route [Inhibitor]: ORAL, Promoter: NONE USED

For `CCNC(=O)/C=C(C)/C=C/C=C(C)/C=C/C1=C(C)CCCC1(C)C`, the “tumour outcome (control, treated, inhibition, significance)” value (Carcinogen: N-METHYL-N-NITROSOUREA, 684-93-5, Dose [Inhibitor]: 2 MMOL/KG DIET DAILY STARTING 12 D AFTER CARCINOGEN TREATMENT THROUGH ABOUT 8 MO AFTER CARCINOGEN DOSE (STUDY DURATION:, Species: RAT, Strain/Sex: F344/MALE, Target Tissue: Type of Lesion: COLON: ADENOMA, Dose [Carcinogen]: 2.5 MG 1/WK FOR 2 WK) is given as 16/39 (41%), 10/30 (33%), 20%, not significant, the “tumour outcome (control, treated, inhibition, significance)” value (Carcinogen: N-METHYL-N-NITROSOUREA, 684-93-5, Dose [Inhibitor]: 327 MG/KG DIET DAILY STARTING 1 WK AFTER LAST CARCINOGEN TREATMENT AND CONTINUING FOR 6 MO (STUDY DURATION: 9 MO), Species: HAMSTER, Strain/Sex: SYRIAN/MALE, Target Tissue: Type of Lesion: TRACHEA: BENIGN EPITHELIAL NEOPLASM, Dose [Carcinogen]: 0.5% IN 1 ML PHOSPHATE-BUFFERED SALINE 1/WK FOR 12 WK) is given as 6/63 (10%), 12/63 (19%), -90%, not significant and the “tumour outcome (control, treated, inhibition, significance)” value (Carcinogen: N-METHYL-N-NITROSOUREA, 684-93-5, Dose [Inhibitor]: 327 MG/KG DIET DAILY STARTING 1 WK AFTER LAST CARCINOGEN TREATMENT AND CONTINUING FOR 6 MO (STUDY DURATION: 9 MO), Species: HAMSTER, Strain/Sex: SYRIAN/MALE, Target Tissue: Type of Lesion: TRACHEA: CARCINOMA, Dose [Carcinogen]: 0.5% IN 1 ML PHOSPHATE-BUFFERED SALINE 1/WK FOR 12 WK) is given as 4/63 (6%), 12/63 (19%), -217%, p<0.05. The “tumour outcome (control, treated, inhibition, significance)” value (Carcinogen: N-METHYL-N-NITROSOUREA, 684-93-5, Dose [Inhibitor]: 327 MG/KG DIET DAILY STARTING 1 WK AFTER LAST CARCINOGEN TREATMENT AND CONTINUING FOR 6 MO (STUDY DURATION: 9 MO), Species: HAMSTER, Strain/Sex: SYRIAN/MALE, Target Tissue: Type of Lesion: TRACHEA: EPITHELIAL NEOPLASM, Dose [Carcinogen]: 0.5% IN 1 ML PHOSPHATE-BUFFERED SALINE 1/WK FOR 12 WK) was 10/63 (16%), 24/63 (38%), -138%, p<0.01, the “tumour outcome (control, treated, inhibition, significance)” value (Carcinogen: N-METHYL-N-NITROSOUREA, 684-93-5, Dose [Inhibitor]: 327 MG/KG IN DIET DAILY FOR 6 MO STARTING 1 WK AFTER FINAL CARCINOGEN DOSE (STUDY DURATION: 9 MO), Species: HAMSTER, Strain/Sex: SYRIAN/MALE, Target Tissue: Type of Lesion: TRACHEA: BENIGN EPITHELIAL NEOPLASM, Dose [Carcinogen]: 0.5% SOLUTION FOR 5 SECOND EXPOSURE 1/WK FOR 12 WK) was 6/63 (10%), 12/63 (19%), -90%, not significant and the “tumour outcome (control, treated, inhibition, significance)” value (Carcinogen: N-METHYL-N-NITROSOUREA, 684-93-5, Dose [Inhibitor]: 327 MG/KG IN DIET DAILY FOR 6 MO STARTING 1 WK AFTER FINAL CARCINOGEN DOSE (STUDY DURATION: 9 MO), Species: HAMSTER, Strain/Sex: SYRIAN/MALE, Target Tissue: Type of Lesion: TRACHEA: CARCINOMA, Dose [Carcinogen]: 0.5% SOLUTION FOR 5 SECOND EXPOSURE 1/WK FOR 12 WK) was 4/63 (6%), 12/63 (19%), -216%, p<0.05. The “tumour outcome (control, treated, inhibition, significance)” value (Carcinogen: N-METHYL-N-NITROSOUREA, 684-93-5, Dose [Inhibitor]: 327 MG/KG IN DIET DAILY FOR 6 MO STARTING 1 WK AFTER FINAL CARCINOGEN DOSE (STUDY DURATION: 9 MO), Species: HAMSTER, Strain/Sex: SYRIAN/MALE, Target Tissue: Type of Lesion: TRACHEA: EPITHELIAL NEOPLASM, Dose [Carcinogen]: 0.5% SOLUTION FOR 5 SECOND EXPOSURE 1/WK FOR 12 WK) was 10/63 (16%), 24/63 (38%), -138%, p<0.01, the “tumour outcome (control, treated, inhibition, significance)” value (Carcinogen: N-METHYL-N-NITROSOUREA, 684-93-5, Dose [Inhibitor]: 654 MG/KG DIET DAILY FOR 24 WK STARTING 5 D AFTER LAST DOSE OF CARCINOGEN (STUDY DURATION: 32 WK), Species: RAT, Strain/Sex: F344/MALE, Target Tissue: Type of Lesion: COLON: SARCOMA, Dose [Carcinogen]: 0.5 MG 2/WK FOR 8 WK) was 5/40 (13%), 1/40 (3%), 77%, not calculated and the “tumour outcome (control, treated, inhibition, significance)” value (Carcinogen: N-METHYL-N-NITROSOUREA, 684-93-5, Dose [Inhibitor]: 654 MG/KG DIET DAILY FOR 24 WK STARTING 5 D AFTER LAST DOSE OF CARCINOGEN (STUDY DURATION: 32 WK), Species: RAT, Strain/Sex: F344/MALE, Target Tissue: Type of Lesion: COLON: TUMOR, Dose [Carcinogen]: 0.5 MG 2/WK FOR 8 WK) was 60%, 65%, -8%, not significant. For the same compound, the “tumour outcome (control, treated, inhibition, significance)” value (Carcinogen: N-METHYL-N-NITROSOUREA, 684-93-5, Dose [Inhibitor]: 654 MG/KG DIET DAILY FOR 38 WK STARTING 5 D AFTER LAST DOSE OF CARCINOGEN (STUDY DURATION: 44 WK), Species: RAT, Strain/Sex: F344/MALE, Target Tissue: Type of Lesion: COLON: TUMOR, Dose [Carcinogen]: 0.5 MG 2/WK FOR 6 WK) was 62%, 62%, 0%, not significant, the “tumour outcome (control, treated, inhibition, significance)” value (Carcinogen: N-METHYL-N-NITROSOUREA, 684-93-5, Dose [Inhibitor]: 654 MG/KG DIET DAILY FOR 48 WK STARTING 5 D AFTER LAST DOSE OF CARCINOGEN (STUDY DURATION: 52 WK), Species: RAT, Strain/Sex: F344/MALE, Target Tissue: Type of Lesion: COLON: TUMOR, Dose [Carcinogen]: 0.5 MG 2/WK FOR 4 WK) was 31%, 30%, 3%, not significant and the “tumour outcome (control, treated, inhibition, significance)” value (Carcinogen: N-NITROBIS(2-OXOPROPYL)AMINE, 60559-38-4, Dose [Inhibitor]: 0.5 OR 1.0 MMOL/KG DIET DAILY STARTING 1 WK AFTER CARCINOGEN TREATMENT AND CONTINUING THROUGH THE END OF THE STUDY (STUD, Species: HAMSTER, Strain/Sex: SYRIAN/FEMALE, Target Tissue: Type of Lesion: LIVER: BENIGN TUMOR, Dose [Carcinogen]: 40 MG/KG BW ONCE) was 4/20 (20%), 17/37 (46%), -130%, not significant. The “tumour outcome (control, treated, inhibition, significance)” value (Carcinogen: N-NITROBIS(2-OXOPROPYL)AMINE, 60559-38-4, Dose [Inhibitor]: 0.5 OR 1.0 MMOL/KG DIET DAILY STARTING 1 WK AFTER CARCINOGEN TREATMENT AND CONTINUING THROUGH THE END OF THE STUDY (STUD, Species: HAMSTER, Strain/Sex: SYRIAN/FEMALE, Target Tissue: Type of Lesion: ND: TOTAL TUMOR, Dose [Carcinogen]: 40 MG/KG BW ONCE) was 17/20 (85%), 32/37 (86%), 1%, not significant, the “tumour outcome (control, treated, inhibition, significance)” value (Carcinogen: N-NITROBIS(2-OXOPROPYL)AMINE, 60559-38-4, Dose [Inhibitor]: 0.5 OR 1.0 MMOL/KG DIET DAILY STARTING 1 WK AFTER CARCINOGEN TREATMENT AND CONTINUING THROUGH THE END OF THE STUDY (STUD, Species: HAMSTER, Strain/Sex: SYRIAN/FEMALE, Target Tissue: Type of Lesion: PANCREAS: DUCTULAR ADENOMA, Dose [Carcinogen]: 10 MG/KG BW ONCE) was 5/23 (23%), 13/25 (52%), -126%, not significant and the “tumour outcome (control, treated, inhibition, significance)” value (Carcinogen: N-NITROBIS(2-OXOPROPYL)AMINE, 60559-38-4, Dose [Inhibitor]: 0.5 OR 1.0 MMOL/KG DIET DAILY STARTING 1 WK AFTER CARCINOGEN TREATMENT AND CONTINUING THROUGH THE END OF THE STUDY (STUD, Species: HAMSTER, Strain/Sex: SYRIAN/FEMALE, Target Tissue: Type of Lesion: PANCREAS: DUCTULAR ADENOMA, Dose [Carcinogen]: 40 MG/KG BW ONCE) was 12/20 (60%), 27/37 (73%), -22%, not significant. For the same compound, the “tumour outcome (control, treated, inhibition, significance)” value (Carcinogen: N-NITROBIS(2-OXOPROPYL)AMINE, 60559-38-4, Dose [Inhibitor]: 0.5 OR 1.0 MMOL/KG DIET DAILY STARTING 1 WK AFTER CARCINOGEN TREATMENT AND CONTINUING THROUGH THE END OF THE STUDY (STUD, Species: HAMSTER, Strain/Sex: SYRIAN/FEMALE, Target Tissue: Type of Lesion: PANCREAS: DUCTULAR CARCINOMA, Dose [Carcinogen]: 10 MG/KG BW ONCE) was 6/23 (27%), 6/25 (24%), 11%, not significant, the “tumour outcome (control, treated, inhibition, significance)” value (Carcinogen: N-NITROBIS(2-OXOPROPYL)AMINE, 60559-38-4, Dose [Inhibitor]: 0.5 OR 1.0 MMOL/KG DIET DAILY STARTING 1 WK AFTER CARCINOGEN TREATMENT AND CONTINUING THROUGH THE END OF THE STUDY (STUD, Species: HAMSTER, Strain/Sex: SYRIAN/MALE, Target Tissue: Type of Lesion: LIVER: BENIGN TUMOR, Dose [Carcinogen]: 40 MG/KG BW ONCE) was 5/24 (21%), 25/41 (62%), -195%, p<0.05 and the “tumour outcome (control, treated, inhibition, significance)” value (Carcinogen: N-NITROBIS(2-OXOPROPYL)AMINE, 60559-38-4, Dose [Inhibitor]: 0.5 OR 1.0 MMOL/KG DIET DAILY STARTING 1 WK AFTER CARCINOGEN TREATMENT AND CONTINUING THROUGH THE END OF THE STUDY (STUD, Species: HAMSTER, Strain/Sex: SYRIAN/MALE, Target Tissue: Type of Lesion: ND: TOTAL TUMOR, Dose [Carcinogen]: 10 MG/KG BW ONCE) was 12/22 (54%), 24/31 (77%), -43%, not significant.
